Experimental data reported in patent publication US20230220313A1, “COMPOSITION AND METHOD FOR INACTIVATING A VIRUS” (RNASSIST LIMITED, priority 2020, published 2023).
Where a name gives a salt, the structure may show the parent alone.

Tested on: not listed separately
Assay: Viscosity by falling ball method
Format: physicochemical
Settings: falling ball method at 20° C.

Compound | viscosity [cP]
COCCOCCOCCOCCOC [Tetraethylene glycol dimethyl ether] | 3.3
COCCOCCOCCOCCO [Tetraethylene glycol monomethyl ether] | 12

Tested on: SARS-CoV-2
Assay: not given
Settings: Welch et al (2020) J. Clin. Microbiology; cited from earlier work

Compound | inactivation of SARS-CoV-2
N=C(N)N [Guanidine HCl] | not completely inactivated
N#CS.N=C(N)N [Guanidine thiocyanate] | not completely inactivated
CCCCCCCCCCCCOS(=O)(=O)[O-].[Na+] [SDS] | not completely inactivated
Triton X-100 | not completely inactivated
